Source: patent publication US8901307B2, “Chemical compounds 251” (AstraZeneca AB, priority 2008, dated 2014)
Counter-ions that a name gives are not always drawn.

Key:
human His-PIM1 [2-313] = target: T1, human His-PIM1 [2-313] (Homo sapiens, UniProt P11309); test: PIM1 in-vitro mobility shift assay (Caliper LC3000, FL-Ahx-Bad phosphorylation); assay type: biochemical; conditions: 1.5 h; percent inhibition at 0.3 uM compound; read-out: PIM1 % I at 0.3 uM
T1 construct: purified human His-PIM1 [2-313] enzyme; His (N); purchased University of Dundee, Scotland; host or cells: baculovirus system
T1 sequence (P11309 2-313): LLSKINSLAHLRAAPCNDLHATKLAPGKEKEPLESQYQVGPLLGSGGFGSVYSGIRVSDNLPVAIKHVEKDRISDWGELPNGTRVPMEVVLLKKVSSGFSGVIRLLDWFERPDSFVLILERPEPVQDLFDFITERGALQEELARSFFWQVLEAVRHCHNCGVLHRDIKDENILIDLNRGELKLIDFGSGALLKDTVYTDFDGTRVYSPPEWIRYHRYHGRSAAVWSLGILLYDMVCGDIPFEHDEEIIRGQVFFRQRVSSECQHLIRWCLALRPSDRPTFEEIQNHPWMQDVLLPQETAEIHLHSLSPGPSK
Method in brief: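 Compound preincubated 20 min at 25 °C with 2.4 nM PIM1, 3.6 µM FL-Ahx-Bad peptide and 240 µM ATP (1.2× mix concentrations). Reaction started with 24 mM MgCl2 mix, run 90 min at 25 °C, EDTA-stopped. Phospho/unphospho peptide separated by microfluidic mobility shift; percent inhibition from ratiometric turnover.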

human His-PIM2 [23-299] = target: T2, human His-PIM2 [23-299] (Homo sapiens, UniProt Q9P1W9); test: PIM2 in-vitro mobility shift assay (Caliper LC3000, FL-Ahx-Bad phosphorylation); assay type: biochemical; conditions: 1.5 h; percent inhibition at 0.3 uM compound; read-out: PIM2 % I at 0.3 uM
T2 construct: purified human His-PIM2 [23-299] enzyme; His (N); host or cells: E. coli
T2 sequence (Q9P1W9 23-299): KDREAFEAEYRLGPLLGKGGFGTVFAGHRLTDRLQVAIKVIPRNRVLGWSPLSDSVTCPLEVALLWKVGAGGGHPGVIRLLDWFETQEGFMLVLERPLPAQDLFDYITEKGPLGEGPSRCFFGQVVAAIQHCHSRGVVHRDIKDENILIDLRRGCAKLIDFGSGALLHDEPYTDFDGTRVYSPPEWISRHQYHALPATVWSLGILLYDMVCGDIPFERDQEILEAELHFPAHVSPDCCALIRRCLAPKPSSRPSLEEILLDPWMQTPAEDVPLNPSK

| inhibition at 0.3 µM (human His-PIM1 [2-313]) [%] | inhibition at 0.3 µM (human His-PIM2 [23-299]) [%] | Structure (SMILES) |
| --- | --- | --- |
| > 95 | 92.4 | NCCCC(=O)N1CCCN(c2ccccc2/C=C2\SC(=O)NC2=O)CC1 [Example 104, (Z)-5-(2-(4-(4-aminobutanoyl)-1,4-diazepan-1-yl)benzylidene)thiazolidine-2,4-dione hydrochloride] |
| > 95 | 92.4 | NCCC(=O)N1CCCN(c2ccccc2/C=C2\SC(=O)NC2=O)CC1 [Example 105, (Z)-5-(2-(4-(3-aminopropanoyl)-1,4-diazepan-1-yl)benzylidene)thiazolidine-2,4-dione hydrochloride] |
| > 95 | 92.8 | O=C1NC(=O)/C(=C/c2ccccc2N2CCCNCC2)S1 [Example 106, (Z)-5-(2-(1,4-diazepan-1-yl)benzylidene)thiazolidine-2,4-dione hydrochloride] |
| > 95 | > 95 | NCCCC(=O)N1CCN(c2ccccc2/C=C2\SC(=O)NC2=O)CC1 [Example 107, (Z)-5-(2-(4-(4-aminobutanoyl)piperazin-1-yl)benzylidene)thiazolidine-2,4-dione hydrochloride] |
| > 95 | > 95 | NCCCCC(=O)N1CCN(c2ccccc2/C=C2\SC(=O)NC2=O)CC1 [Example 108, (Z)-5-(2-(4-(5-aminopentanoyl)piperazin-1-yl)benzylidene)thiazolidine-2,4-dione hydrochloride] |
| 64.2 | 65.8 | O=C1NC(=O)/C(=C/c2ccccc2N2CCN(C(=O)c3ccc(CN4CCNCC4)cc3)CC2)S1 [Example 109, (Z)-5-(2-(4-(4-(piperazin-1-ylmethyl)benzoyl)piperazin-1-yl)benzylidene)thiazolidine-2,4-dione hydrochloride] |
| 90.9 | 90.7 | NCc1cccc(C(=O)N2CCN(c3ccccc3/C=C3\SC(=O)NC3=O)CC2)c1 [Example 110, (Z)-5-(2-(4-(3-(aminomethyl)benzoyl)piperazin-1-yl)benzylidene)thiazolidine-2,4-dione hydrochloride] |
| > 95 | > 95 | COc1cc(/C=C2\SC(=O)NC2=O)c(N2CCC(NCCN)C2)cc1OC (centres unmarked) [Example 111, (Z)-5-(2-(3-(2-aminoethylamino)pyrrolidin-1-yl)-4,5-dimethoxybenzylidene)thiazolidine-2,4-dione hydrochloride] |
| > 95 | > 95 | NCCN1CCN(c2ccccc2/C=C2\SC(=O)NC2=O)CC1 [Example 112, (Z)-5-(2-(4-(2-aminoethyl)piperazin-1-yl)benzylidene)thiazolidine-2,4-dione hydrochloride] |
| > 95 | > 95 | CNCCNC1CCN(c2cc(OC)c(OC)cc2/C=C2\SC(=O)NC2=O)C1 (centres unmarked) [Example 113, (Z)-5-(4,5-dimethoxy-2-(3-(2-(methylamino)ethylamino)pyrrolidin-1-yl)benzylidene)thiazolidine-2,4-dione hydrochloride] |
| > 95 | > 95 | CNCCN1CCN(c2ccccc2/C=C2\SC(=O)NC2=O)CC1 [Example 114, (Z)-5-(2-(4-(2-(methylamino)ethyl)piperazin-1-yl)benzylidene)thiazolidine-2,4-dione hydrochloride] |
| > 95 | > 95 | O=C1NC(=O)/C(=C/c2ccccc2N2CCN(C(=O)C3CCCNC3)CC2)S1 (centres unmarked) [Example 116, 5-(2-(4-(piperidine-3-carbonyl)piperazin-1-yl)benzylidene)thiazolidine-2,4-dione hydrochloride] |
| > 95 | > 95 | O=C1NC(=O)/C(=C/c2ccccc2N2CCN(C(=O)C3CNC3)CC2)S1 [Example 117, (5Z)-5-{2-[4-(azetidin-3-ylcarbonyl)piperazin-1-yl]benzylidene}-1,3-thiazolidine-2,4-dione hydrochloride] |
| > 95 | > 95 | COc1cc(/C=C2\SC(=O)NC2=O)c(N2CCC(N)C2)cc1OC (centres unmarked) [Example 118, (5Z)-5-[2-(3-aminopyrrolidin-1-yl)-4,5-dimethoxybenzylidene]-1,3-thiazolidine-2,4-dione hydrochloride] |
| 56.2 | 20.1 | COc1cc(/C=C2\SC(=O)NC2=O)c(N2CC[C@@H](NC(=O)CCCCN)C2)cc1OC [Example 119, (R,Z)-5-amino-N-(1-(2-((2,4-dioxothiazolidin-5-ylidene)methyl)-4,5-dimethoxyphenyl)pyrrolidin-3-yl)pentanamide hydrochloride] |
| 58.9 | 22.2 | COc1cc(/C=C2\SC(=O)NC2=O)c(N2CC[C@H](NC(=O)CCCCN)C2)cc1OC [Example 120, (S,Z)-5-amino-N-(1-(2-((2,4-dioxothiazolidin-5-ylidene)methyl)-4,5-dimethoxyphenyl)pyrrolidin-3-yl)pentanamide hydrochloride] |
| > 95 | 87.4 | COc1cc(/C=C2\SC(=O)NC2=O)c(N2CC[C@H](NCCCN)C2)cc1OC [Example 121, (S,Z)-5-(2-(3-(3-aminopropylamino)pyrrolidin-1-yl)-4,5-dimethoxybenzylidene)thiazolidine-2,4-dione hydrochloride] |
| 88.2 | 55 | COc1cc(/C=C2\SC(=O)NC2=O)c(N2CC[C@@H](NCCCN)C2)cc1OC [Example 122A, (R,Z)-5-(2-(3-(3-aminopropylamino)pyrrolidin-1-yl)-4,5-dimethoxybenzylidene)thiazolidine-2,4-dione hydrochloride] |
| > 95 | > 95 | COCCOc1cccc(/C=C2\SC(=O)NC2=O)c1N1CCC[C@@H](N)C1 [Example 122AA, (R,Z)-5-(2-(3-aminopiperidin-1-yl)-3-(2-methoxyethoxy)benzylidene)thiazolidine-2,4-dione hydrochloride] |
| > 95 | > 95 | COCCOc1cccc(/C=C2\SC(=O)NC2=O)c1N1CC[C@H](N)C1 [Example 122AB, (S,Z)-5-(2-(3-aminopyrrolidin-1-yl)-3-(2-methoxyethoxy)benzylidene)thiazolidine-2,4-dione hydrochloride] |
| > 95 | > 95 | N[C@@H]1CCCN(c2c(/C=C3\SC(=O)NC3=O)cccc2OC2CCCC2)C1 [Example 122AC, (R,Z)-5-(2-(3-aminopiperidin-1-yl)-3-(cyclopentyloxy)benzylidene)thiazolidine-2,4-dione hydrochloride] |
| > 95 | > 95 | NC(=O)c1ccc(N2CCC[C@@H](N)C2)c(/C=C2\SC(=O)NC2=O)c1 [Example 122AE, (R,Z)-4-(3-aminopiperidin-1-yl)-3-((2,4-dioxothiazolidin-5-ylidene)methyl)benzamide hydrochloride] |
| 83.9 | 87.9 | NC(=O)c1ccc(N2CCC[C@H](N)C2)c(/C=C2\SC(=O)NC2=O)c1 [Example 122AF, (S,Z)-4-(3-aminopiperidin-1-yl)-3-((2,4-dioxothiazolidin-5-ylidene)methyl)benzamide hydrochloride] |
| 68.9 | 86.7 | N[C@@H]1CCCN(c2ccc(C(=O)O)cc2/C=C2\SC(=O)NC2=O)C1 [Example 122AG, (R,Z)-4-(3-aminopiperidin-1-yl)-3-((2,4-dioxothiazolidin-5-ylidene)methyl)benzoic acid hydrochloride] |
| 19 | 14 | N[C@H]1CCN(c2ccc(C(=O)O)cc2/C=C2\SC(=O)NC2=O)C1 [Example 122AH, (S,Z)-4-(3-aminopyrrolidin-1-yl)-3-((2,4-dioxothiazolidin-5-ylidene)methyl)benzoic acid] |
| > 95 | > 95 | N[C@@H]1CCCN(c2c(/C=C3\SC(=O)NC3=O)cccc2-c2ccccc2)C1 [Example 122AI, (R,Z)-5-((2-(3-aminopiperidin-1-yl)biphenyl-3-yl)methylene)thiaozlidine-2,4-dione] |
| > 95 | 92.3 | NC[C@H]1CCN(c2c(Cl)cccc2/C=C2\SC(=O)NC2=O)C1 [Example 122B, (R,Z)-5-(2-(3-(aminomethyl)pyrrolidin-1-yl)-3-chlorobenzylidene)thiazolidine-2,4-dione] |
| > 95 | > 95 | NC[C@@H]1CCN(c2c(Cl)cccc2/C=C2\SC(=O)NC2=O)C1 [Example 122C, (S,Z)-5-(2-(3-(aminomethyl)pyrrolidin-1-yl)-3-chlorobenzylidene)thiazolidine-2,4-dione] |

| Structure (SMILES) | inhibition at 0.3 µM (human His-PIM1 [2-313]) [%] | inhibition at 0.3 µM (human His-PIM2 [23-299]) [%] |
| --- | --- | --- |
| O=C1NC(=O)/C(=C/c2ccccc2N2CCNCC2)S1 [Example 115, (5Z)-5-(2-piperazin-1-ylbenzylidene)-1,3-thiazolidine-2,4-dione hydrochloride] | 93.3 | 76.1 |
| N[C@@H]1CCCN(c2c(/C=C3\SC(=O)NC3=O)cccc2OC2CCC2)C1 [Example 122AD, (R,Z)-5-(2-(3-aminopiperidin-1-yl)-3-cyclobutoxybenzylidene)thiazolidine-2,4-dione hydrochloride] | > 95 | > 95 |
| N[C@@H]1CCCN(c2c(Cl)cccc2/C=C2\SC(=O)NC2=O)C1 [Example 122D, (R,Z)-5-(2-(3-aminopiperidin-1-yl)-3-chlorobenzylidene)thiazolidin-2,4-dione hydrochloride] | > 95 | > 95 |
